Measured values published in patent US8093244B2, “Heteroaryl urea derivatives useful for inhibiting CHK1” (ICOS Corporation, priority 2005, dated 2012).

Assays:
Chk1 [1] = experiment: Western blot of Chk1 phosphorylation at serines 317 and 345 in HT29 cells (Example 9); type: cell-based, human; conditions: 20 μM for two h, 22 additional h
Description: To determine whether an agent is a Chk1 activator, the phosphorylation state of Chk1 can be measured using phospho-specific antibodies to specific phosphorylation sites on Chk1. […] Liu et al., Genes Dev. 14:1448-1459, 2000; Zhao et al., Mol. Cell Biol. 21:4129-4139, 2001; Lopez-Girona et al., Proc. Natl. Acad. Sci. U.S.A. 98:11289-11294, 2001; Guo et al., Genes Dev. 14:2745-2756, 2000; Gatei et al., J. Biol. Chem. 278:14806-14811, 2003; Ng et al., J Biol Chem. 279 (10):8808-19, 2004; Wang et al., Natl Acad Sci USA. 100(26):15387-92, 2003; Stojic et al., Genes Dev. 18(11):1331-44, 2004. These serine sites are phosphorylated by upstream checkpoint kinases, Atm and Atr. Liu et al., Genes Dev. 14:1448-1459, 2000; Zhao et al. Mol. Cell Biol., 21:4129-4139, 2001).
The phosphorylation of these sites in response to a candidate Chk1 activator can be monitored by Western blot or immunohistochemistry of tumor cells. […] HT29 cells are treated with 20 μM gemcitabine for two h. The gemcitabine is washed out of the cell growth media and cells are incubated for 22 additional h. Protein lysates are prepared and separated by an SDS-polyacrylamide gel electrophoresis. Proteins are transferred to PVDF membranes and probed with antisera (Cell Signalling) specific for either phosphorylated serine 317 or 345 (Cell Signalling).

Chk1 [2] = experiment: Western blot of Chk1 phosphorylation at serine 296 in HT29 cells (Example 10); type: cell-based, human; conditions: gemcitabine 20 μM for two h, 22 additional h
Experimental: Phosphorylation at this site is not inhibited by wortmannin, which inhibits Atm and Atr. Therefore, the phosphorylation of serine 296 is distinct from phosphorylation at serines 317 and 345. […] Therefore, this approach can be used to monitor Chk1 activity in tumors in response to Chk1 activators. Further, this approach can be used to measure inhibition of Chk1 activation by Chk1 inhibitors.
Thus, HT 29 cells are treated with 20 μM gemcitabine for two h. The gemcitabine is washed out of the cell growth media and cells are incubated for 22 additional h. Protein lysates are prepared and separated by an SDS-polyacrylamide gel electrophoresis. Proteins are transferred to polyvinylidene fluoride (PVDF) membranes and probed with antisera (Cell Signalling) specific for phosphorlyated serine 296 (Cell Signalling). […] Further, HT29 cells treated with selective Chk1 inhibitors for 15 min show no serine 296 phosphorylation.

[3] = system: xenograft tumors of colon tumor cell lines; experiment: Xenograft animal tumor models (Example 11); type: in vivo, Balb/c (nu/nu) mice; conditions: 160 mg/kg intraperitoneal
Description: To test the ability of the Chk1 inhibitors of the invention to enhance the killing of tumors by DNA damaging agents in mice, xenograft tumor models using colon tumor cell lines are established. 5-fluorouracil (5-FU) or gemcitabine can be used as DNA damaging agents. HT29 and Colo205 (human colon carcinoma) and H460 and Calu-6 (nonsmall cell carcinoma) cells can be used to propagate xenograft tumors in 6-8 week old female […] Balb/c (nu/nu) mice. Mice are maintained in a laminar airflow cabinet under pathogen-free conditions and fed sterile food and water ad libitum. Cell lines are grown to subconfluence in RPMI 1640 media supplemented with 10% FBS, 100 U/mL penicillin, 100 μg/mL streptomycin, and 1.5 mM L-glutamine in a 5% CO2 humidified environment. Single cell suspensions are prepared in CMF-PBS, and cell concentration adjusted to 1×10^8 cells/mL. Mice are inoculated subcutaneously (s.c.) on the right flank or right leg with a total of 1×10^7 cells (100 μL). Mice are randomized (5-15 mice/group) into four treatment groups and used when tumors reach a volume of […] (usually 7-11 days post-inoculation). Tumors are measured with vernier calipers and tumor volumes are estimated using the empirically derived formula: tumor volume (cm^3)=tumor length (cm)×tumor width (cm)×tumor depth (cm)/3.3. […] Tumor size is monitored every other day for the duration of the experiment.

Row | SMILES | phosphorylation of Chk1 serines 317 and 345 (Chk1 [1]) | phosphorylation of Chk1 serine 296 (Chk1 [2]) | tumor growth [3]
1 | Nc1ccn([C@@H]2O[C@H](CO)[C@@H](O)C2(F)F)c(=O)n1 [gemcitabine, 2′,2′-difluoro-2′-deoxycytidine] | results in the phosphorylation of both serines 317 and 345 | results in the phosphorylation of serine 296 | A delay in tumor growth is observed
2 | COC[C@H]1OC(=O)c2coc3c2[C@@]1(C)C1=C(C3=O)[C@@H]2CCC(=O)[C@@]2(C)C[C@H]1OC(C)=O [wortmannin] | – | not inhibited | –
